In patent US20260022142A1, “MACROCYCLIC IMMUNOMODULATORS” (Bristol-Myers Squibb Company, priority 2022, published 2026):
Bridge positions count the residues as written; N and C are the ends. Square brackets hold non-standard residues; d marks the D form. Peptide text beside a SMILES is read from it. * marks the point of attachment. Bip = N[C@@H](Cc1ccc(-c2ccccc2)cc1)C(=O)O; Phe(3-Me) = Cc1cccc(C[C@H](N)C(=O)O)c1; Cha = N[C@@H](CC1CCCCC1)C(=O)O; Carboxymethyl = O=C(O)C*; Orn = NCCC[C@H](N)C(=O)O; Aun = NCCCCCCCCCCC(=O)O; Dap = NC[C@H](N)C(=O)O; AEEA = NCCOCCOCC(=O)O

Molecular target: T1, PD-1/PD-L1 interaction (PE-labeled human PD-L1-Ig binding to Jurkat cell line over-expressing human PD-1) (Homo sapiens, UniProt Q15116)
T1 construct: expressed in transfected cells; host or cells: Jurkat
T1 sequence (Q15116 25-288): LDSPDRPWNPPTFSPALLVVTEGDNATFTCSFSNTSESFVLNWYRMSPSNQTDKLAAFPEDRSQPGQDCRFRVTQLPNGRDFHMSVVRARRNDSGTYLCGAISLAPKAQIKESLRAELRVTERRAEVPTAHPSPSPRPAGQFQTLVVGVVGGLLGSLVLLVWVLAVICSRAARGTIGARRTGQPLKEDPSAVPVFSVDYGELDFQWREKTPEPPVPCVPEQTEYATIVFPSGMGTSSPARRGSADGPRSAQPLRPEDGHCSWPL
Assay: Jurkat-PD-1 Cell Binding High-Content Screening Assay (CBA)
Type: cell-based
Conditions: Jurkat cell line over-expressing human PD-1; PE-labeled PD-L1-Ig 20 nM final; read-out: Jurkat hPD1-PDL1 IC50
Outline: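 Read-out is high-content imaging of cell-bound phycoerythrin-tagged PD-L1-Ig on fixed, Hoechst-counterstained Jurkat cells that over-express human PD-1. Compound exposure lasts 2 h at 37° C before the labeled ligand (20 nM final) is added for a further hour.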

Row | Compound | IC50 [nM]
1 | CC(C)C[C@H]1NC(=O)[C@H](CCCN)NC(=O)[C@H](C(C)C)NC(=O)[C@H](Cc2ccc(-c3ccccc3)cc2)NC(=O)[C@H](C(C)C)NC(=O)[C@H](Cc2c[nH]c3ccccc23)NC(=O)[C@H](CC(=O)O)NC(=O)[C@H](Cc2ccc(OCC(=O)O)cc2)NC(=O)[C@H](CN)NC(=O)CSC[C@@H](C(=O)NCCOCCOCC(=O)N[C@@H](CC(=O)O)C(=O)NCCCCCCCCCCC(=O)O)NC(=O)[C@H]([C@@H](C)O)NC(=O)[C@H](C(C)C)NC(=O)[C@H](CC2CCCCC2)NC(=O)[C@H](Cc2cnc[nH]2)NC1=O [Compound 1105] ({CH2CO}-[Dap]Y(Carboxymethyl)DWV[Bip]V[Orn][dL]H[Cha]VTC[AEEA]D[Aun]-OH; thioether N-14) | 23
2 | Cc1cccc(C[C@@H]2NC(=O)[C@H](CC(=O)O)NC(=O)[C@H](Cc3ccc(OCC(=O)O)cc3)NC(=O)[C@H](CN)NC(=O)CSC[C@@H](C(=O)N[C@@H](CCC(=O)O)C(=O)NCC(=O)NCCCCCCCCCCC(=O)O)NC(=O)[C@H]([C@@H](C)O)NC(=O)[C@H](C(C)C)NC(=O)[C@H](CC3CCCCC3)NC(=O)[C@H](Cc3cnc[nH]3)NC(=O)[C@@H](CC(C)C)NC(=O)[C@H](CCCN)NC(=O)[C@H](C(C)C)NC(=O)[C@H](Cc3ccc(-c4ccccc4)cc3)NC(=O)[C@H](C(C)C)NC2=O)c1 [Compound 1106] ({CH2CO}-[Dap]Y(Carboxymethyl)D[Phe(3-Me)]V[Bip]V[Orn][dL]H[Cha]VTCEG[Aun]-OH; thioether N-14) | 26.5
3 | Cc1cccc(C[C@@H]2NC(=O)[C@H](CC(=O)O)NC(=O)[C@H](Cc3ccc(OCC(=O)O)cc3)NC(=O)[C@H](CN)NC(=O)CSC[C@@H](C(=O)N[C@@H](CC(=O)O)C(=O)NCCCCCCCCCCC(=O)O)NC(=O)[C@H]([C@@H](C)O)NC(=O)[C@H](C(C)C)NC(=O)[C@H](CC3CCCCC3)NC(=O)[C@H](Cc3cnc[nH]3)NC(=O)[C@@H](CC(C)C)NC(=O)[C@H](CCCN)NC(=O)[C@H](C(C)C)NC(=O)[C@H](Cc3ccc(-c4ccccc4)cc3)NC(=O)[C@H](C(C)C)NC2=O)c1 [Compound 1107] ({CH2CO}-[Dap]Y(Carboxymethyl)D[Phe(3-Me)]V[Bip]V[Orn][dL]H[Cha]VTCD[Aun]-OH; thioether N-14) | 35.8
4 | Cc1cccc(C[C@@H]2NC(=O)[C@H](CC(=O)O)NC(=O)[C@H](Cc3ccc(OCC(=O)O)cc3)NC(=O)[C@H](CN)NC(=O)CSC[C@@H](C(=O)N[C@@H](CCC(=O)O)C(=O)NCCCCCCCCCCC(=O)O)NC(=O)[C@H]([C@@H](C)O)NC(=O)[C@H](C(C)C)NC(=O)[C@H](CC3CCCCC3)NC(=O)[C@H](Cc3cnc[nH]3)NC(=O)[C@@H](CC(C)C)NC(=O)[C@H](CCCN)NC(=O)[C@H](C(C)C)NC(=O)[C@H](Cc3ccc(-c4ccccc4)cc3)NC(=O)[C@H](C(C)C)NC2=O)c1 [Compound 1108] ({CH2CO}-[Dap]Y(Carboxymethyl)D[Phe(3-Me)]V[Bip]V[Orn][dL]H[Cha]VTCE[Aun]-OH; thioether N-14) | 27
5 | Cc1cccc(C[C@@H]2NC(=O)[C@H](CC(=O)O)NC(=O)[C@H](Cc3ccc(OCC(=O)O)cc3)NC(=O)[C@H](CN)NC(=O)CSC[C@@H](C(=O)N[C@@H](CCCN)C(=O)NCCCCCCCCCCC(=O)O)NC(=O)[C@H]([C@@H](C)O)NC(=O)[C@H](C(C)C)NC(=O)[C@H](CC3CCCCC3)NC(=O)[C@H](Cc3cnc[nH]3)NC(=O)[C@@H](CC(C)C)NC(=O)[C@H](CCCN)NC(=O)[C@H](C(C)C)NC(=O)[C@H](Cc3ccc(-c4ccccc4)cc3)NC(=O)[C@H](C(C)C)NC2=O)c1 [Compound 1109] ({CH2CO}-[Dap]Y(Carboxymethyl)D[Phe(3-Me)]V[Bip]V[Orn][dL]H[Cha]VTC[Orn][Aun]-OH; thioether N-14) | 37.6
